From ChEMBL document CHEMBL5050844 (2019)

Legend:
Assay type in all cases: functional, T cell line
[1] = Induction of anti-CD3/CD28 antibodies-stimulated human T cell activation at 4 uM assessed fold increase in IL-2 secretion measured by ELISA assay
[2] = Induction of anti-CD3/CD28 antibodies-stimulated human T cell activation at 1 uM assessed fold increase in IL-2 secretion measured by ELISA assay
[3] = Induction of anti-CD3/CD28 antibodies-stimulated human T cell activation at 0.3 uM assessed fold increase in IL-2 secretion measured by ELISA assay
[4] = Induction of anti-CD3 antibodies-stimulated human T cell activation at 8 uM assessed fold increase in IL-2 secretion measured by ELISA assay; further: reference of the scale not given here
[5] = Induction of anti-CD3 antibodies-stimulated human T cell activation at 1 uM assessed fold increase in IL-2 secretion measured by ELISA assay; further: reference of the scale not given here
[6] = Induction of anti-CD3/CD28 antibodies-stimulated human T cell activation at 4 uM assessed fold increase in CD25 expression measured by ELISA assay
[7] = Induction of anti-CD3/CD28 antibodies-stimulated human T cell activation at 1 uM assessed fold increase in CD25 expression measured by ELISA assay
[8] = Induction of anti-CD3/CD28 antibodies-stimulated human T cell activation at 0.3 uM assessed fold increase in CD25 expression measured by ELISA assay
[9] = Induction of anti-CD3 antibodies-stimulated human T cell activation at 8 uM assessed fold increase in CD25 expression measured by ELISA assay; further: reference of the scale not given here
[10] = Induction of anti-CD3 antibodies-stimulated human T cell activation at 1 uM assessed fold increase in CD25 expression measured by ELISA assay; further: reference of the scale not given here

Structure (SMILES) | fold change (FC) [1] | fold change (FC) [2] | fold change (FC) [3] | fold change (FC) [4] | fold change (FC) [5] | fold change (FC) [6] | fold change (FC) [7] | fold change (FC) [8] | fold change (FC) [9] | fold change (FC) [10]
C[C@H](Sc1nncn1C)c1cccc(NC(=O)c2cc(C(C)(C)O)cc(C(F)(F)F)n2)c1 | 1.01 | <=1 | <=1 | <=0.05 | <=0.05 | 1.01 | 1.01 | 1.01 | >=1.001 | 0.601
C[C@H](Cc1nncn1C)c1cccc(NC(=O)c2coc(C(F)(F)F)n2)c1 | 1.01 | 1.01 | <=1 | 0.101 | 0.051 | 1.01 | 1.01 | 1.01 | 0.801 | 0.601
Cn1cnnc1C(F)(F)[C@](C)(F)c1cccc(NC(=O)c2nc3c(C(F)(F)F)cccc3[nH]2)c1 | 2.51 | 1.01 | 1.01 | 0.151 | 0.051 | 1.01 | 1.01 | 1.01 | 0.601 | 0.601
Cc1cc(C(=O)Nc2cccc([C@H](C)Sc3nncn3C)c2)nc2ccccc12 | 2.51 | 1.01 | 1.01 | 0.101 | 0.051 | 1.01 | 1.01 | 1.01 | 0.801 | 0.601
Cn1cnnc1C(F)(F)[C@](C)(F)c1cccc(N2Cc3c(cc(C(=O)N4CC(C(F)F)C4)cc3C(F)(F)F)C2=O)c1 | 1.01 | 1.01 | 1.01 | 0.051 | 0.051 | 1.01 | 1.01 | 1.01 | 0.801 | 0.601
C[C@H](Cc1nncn1C)c1cccc(NC(=O)c2cc(C(F)(F)F)n[nH]2)c1 | 1.01 | 1.01 | 1.01 | 0.101 | 0.051 | 1.01 | 1.01 | 1.01 | 0.601 | 0.601
